How the values were obtained:
rat C6 glioma cells = experiment: Anti-glioma MTT assay, C6 cells; format: cell-based; conditions: for IC50: Rattus norvegicus, C6 cells
Method: (§1) The anti-glioma effects of these compounds were evaluated by MTT assay in rat C6 glioma cells, human glioma U87 and U251 cells, and BMECs cells. Brieﬂy, cells were seeded at the density of 4,000 cells/well in 96-well plates overnight. For the first screening, the cells were incubated with 10, 20, 100 μM compounds for 48 h. Then cell viabilities were detected by MTT assay as described above. For the second screening, the cells were incubated with 6.25-, 12.5-, 25-, 50-, and 100μM compounds for 48 and 96 h, and then detected by MTT assay. The OD of each well was measured at 490 nm on an ELISA microplate reader. The inhibitory rates and IC50 values were calculated.

[1] = test system: NF-κB pathway-related proteins; experiment: Western blot of NF-κB pathway-related proteins, U87 cells; format: cell-based, human; conditions: 20 and 50 μM, 48 h
Method: (§2) Briefly, after treatment with indicated concentrations of test compound (20, 50 μM) for 48 h, the cells were collected, and total cell lysates and nucleus fractions were extracted. Twenty micrograms of cellular protein were subjected to electrophoresis on 12% SDS-polyacrylamide gels and then transferred to polyvinylidene difluoride membranes. The membranes were first incubated with 5% BSA for 2 h at 37°C and then incubated with the first antibodies overnight at 4°C. After HRP-labeled secondary antibodies (1:1,000-dilution) incubation, protein bands were visualized with the enhanced chemiluminescence (ECL) detection solution. The intensity of bands was quantified using ImageJ 1.43 software (National Institutes of Health, Bethesda, MD, USA).

BMECs = experiment: MTT assay on normal BMECs (48 and 96 h); format: cell-based; conditions: Rattus norvegicus
Method: (§3) Rat brain microvascular endothelial cells (BMECs) were separated from the cerebral cortex of 18-day-old male Sprague-Dawley rats as described previously ([Biegel et al., 1995]). Briefly, the cerebral cortical tissues were dissected from meninges after the rats were sacrificed, then the tissues were homogenated in physiological buffer solution (pH 7.4). After centrifugation, the pellets were collected, and the microvascular segments were then digested with 0.1% collagenase II at 37°C for 1 h. […] The second passage was used for co-culture of BBB cellular models.
as §1

U87 cells = experiment: Apoptosis by Annexin V-FITC/PI staining, U87 cells; format: cell-based, human; conditions: 48 h, mean ± SD
Method: (§4) The effects of test compound on apoptosis were detected by Annexin V-FITC/PI staining. Briefly, after treatment with indicated concentrations of test compounds (20, 50 μM) for 48 h, the cells were collected and resuspended in 500-μl detection buffer. Then 5μl PI and 5μl Annexin V-FITC were added to the detection buffer. Then, cells were incubated for 15 min in the dark and analyzed using Flow cytometer (Becton Dickinson) and WinMDI 2.8 software (Scripps Institute, La Jolla, CA, USA).

ROS levels in U87 cells = experiment: Intracellular ROS levels (DCF, flow cytometry), U87 cells; format: cell-based, human; conditions: 20 and 50 μM, 48 h, P < 0.05
Method: (§5) Intracellular reactive oxygen species (ROS) levels were detected using Reactive Oxygen Species Assay Kit (Jiancheng Bioengineering, Nanjing, China) as per the manufacturer’s instruction. Brieﬂy, after treatment with indicated concentrations of test compound (20, 50 μM) for 48 h, the cells were incubated in 1 ml 2,7-dichloroﬂuorescin diacetate working solution (100 μM) for 30 min at 37°C in the dark, and washed with PBS. Then ﬂuorescence intensities of intracellular DCF were detected using a FACS Calibur ﬂow cytometer (Becton-Dickinson, San Jose, CA, USA). H2O2 treatment group was used as the positive control group.

human glioma U251 cells = experiment: Anti-glioma MTT assay, U251 cells; format: cell-based
Method: as §1

[2] = test system: NF-κB pathway-related proteins; experiment: Western blot of NF-κB pathway-related proteins, C6 cells; format: cell-based, rat; conditions: 20 and 50 μM, 48 h
Method: as §2

[3] = Transport experiment in the in vitro BBB cell model; format: in vitro ADME; conditions: Sprague-Dawley, rat, C0 20 μM, apical to basolateral, mean ± SD (n = 3-4), read-out: Papp × 10^−6
Method: as §3
Astrocytes were separated from the cerebral cortex of newborn Sprague-Dawley rats (1–2 days) as described previously ([Jeliazkova-Mecheva and Bobilya, 2003]). The brain tissues (removal of the meninges and blood vessel) were minced and mechanical homogenized and then digested with 0.25% trypsin-EDTA at 37°C for 10 min.
The in vitro BBB cell model was constructed in the Transwell 24well plate ([…], Millipore, USA). Before the experiment, the transwell filters were coated with matrigel matrix. The isolated rat astroglias were seeded onto one side of polycarbonate inserts (5 × 10^4 cells/insert). After 3 to 5 days, the rat BMECs were seeded at a density of 1.5 × 10^5 cells/insert onto the opposite side of the inserts to produce rat BMEC monolayers. The in vitro BBB cell model was formed 3 to 4 days. Trans-epithelial electrical resistance (TEER) measurements were performed everyday after the co-cultures formed until the TEER value increased to […] ([Yang et al., 2014]) ( Figure 2C ).
The transport experiments were performed by adding 400 μl HBSS containing the compounds to the apical side (AP), with 600μl HBSS to the basolateral side (BL) at the same time. Samples (60 μl) were collected from the BL chamber at the time points of 15, 30, 60, 90, 120, and 180 min, and the corresponding volume of HBSS buffer was immediately added into the BL chamber. The samples were precipitated by methanol, and the concentrations of the compounds in the samples were determined by high-performance liquid chromatography (HPLC). The HPLC conditions were as follows: Agilent TC-C18 column (250 × 4.6 mm; 5 μm), methanol 1% ethanoic acid mobile phase (from 10:90 to 90:10, v/v), with gradient elution at a flow rate of 1.0 ml/min. The detection wavelength was 275 nm for these compounds. The run time was 20 min. The apparent permeability coefficients (P app) were calculated from the following formula: P app = (∆Q/∆t)/(A × C 0), where ∆Q/∆t is the linear appearance rate of the compound on the BL side (μmol/s), A is the surface area of the cell monolayer (cm^2), and C 0 is the initial concentration of the drug on the AP side (μmol/L).

ROS levels in C6 cells = experiment: Intracellular ROS levels (DCF, flow cytometry), C6 cells; format: cell-based, rat; conditions: 20 and 50 μM, 48 h, P < 0.05
Method: as §5

C6 cells = experiment: Apoptosis by Annexin V-FITC/PI staining, C6 cells; format: cell-based, rat; conditions: 48 h, mean ± SD
Method: as §4

human glioma U87 cells = experiment: Anti-glioma MTT assay, U87 cells; format: cell-based; conditions: for IC50: Homo sapiens, U-87 MG, U87 cells
Method: as §1

[4] = 10, 20, 100 μM, 48 h, compared with D1, P < 0.05

In the case of `COc1cc(C(=O)CSCc2ccccc2Cl)ccc1O` [Compound D31, 2-((2-Chlorobenzyl)thio)-1-(4-Hydroxy-3-Methoxyphenyl)Ethan-1-One], the “Anti-proliferation effect on C6 cells (first screening)” value (rat C6 glioma cells; [4]) is reported as “significant anti-proliferation effects”, the IC50 (rat C6 glioma cells; 48 h) is reported as 35.1 µM and the IC50 (rat C6 glioma cells; 96 h) is reported as 25.4 µM. For the same compound, the IκBα expression [1] was “obviously decreased”, the “nucleus p-NF-κB p65 expression” value [1] was “obviously increased” and the p-IKKα/β expression [1] was “obviously increased”. For the same compound, the IC50 (BMECs; 48 h) was > 100 µM, the IC50 (BMECs; 96 h) was > 100 µM and the Apoptotic cell rate (U87 cells; 20 μM) was 16.7 ± 3.1%. The Apoptotic cell rate (U87 cells; 50 μM) was 29.7 ± 4.7%, the “Fluorescence intensity of DCF (ROS generation) vs control” value (ROS levels in U87 cells) was “significant increases” and the IC50 (human glioma U251 cells; U-251, 48 h) was 40.1 µM. The IC50 (human glioma U251 cells; U-251, 96 h) was 35.1 µM, the IκBα expression [2] was “obviously decreased” and the “nucleus p-NF-κB p65 expression” value [2] was “obviously increased”. For the same compound, the p-IKKα/β expression [2] was “obviously increased”, the Papp at 90 min, 20 μM [3] was 12 ± 0.94 ×10⁻⁶ cm/s and the “Fluorescence intensity of DCF (ROS generation) vs control” value (ROS levels in C6 cells) was “significant increases”. The Apoptotic cell rate (C6 cells; 20 μM) was 27.9 ± 4.2%, the Apoptotic cell rate (C6 cells; 50 μM) was 32.2 ± 5.0% and the “Anti-proliferation effect on U87 cells (first screening)” value (human glioma U87 cells; [4]) was “significant anti-proliferation effects”. For the same compound, the IC50 (human glioma U87 cells; 48 h) was 23.5 µM and the IC50 (human glioma U87 cells; 96 h) was 21.5 µM.

— article PMC6733959, “Synthesis and Evaluations of Novel Apocynin Derivatives as Anti-Glioma Agents” (Frontiers in Pharmacology, 2019)
